Columns and labels:
Mu-type opioid receptor [1] = molecular target: T1, Mu-type opioid receptor (Cavia porcellus, UniProt P97266); experiment: Compound was tested for binding affinity towards mu opioid receptor in guinea pig brain homogenates using [3H]CTOP as radioligand; type: tissue-based
[2] = system: Opioid receptors; mu & delta; experiment: Ratio of activity of mu opioid receptor from guinea pig ileum (GPI) to that of delta opioid receptor from mouse vas deferens (MVD); type: tissue-based
Mu-type opioid receptor [3] = molecular target: T1, Mu-type opioid receptor; experiment: Inhibitory concentration required against biological activity of mu opioid receptor from guinea pig ileum (GPI); type: tissue-based
[4] = molecular target: Opioid receptors; mu & delta (Homo sapiens) (UniProt P41143+P35372); experiment: Selectivity ratio of binding affinity towards delta opioid receptor to that of mu opioid receptor; type: protein assay
Opioid receptors; mu & delta (Homo sapiens), sequence (P35372 whole entry, looked up): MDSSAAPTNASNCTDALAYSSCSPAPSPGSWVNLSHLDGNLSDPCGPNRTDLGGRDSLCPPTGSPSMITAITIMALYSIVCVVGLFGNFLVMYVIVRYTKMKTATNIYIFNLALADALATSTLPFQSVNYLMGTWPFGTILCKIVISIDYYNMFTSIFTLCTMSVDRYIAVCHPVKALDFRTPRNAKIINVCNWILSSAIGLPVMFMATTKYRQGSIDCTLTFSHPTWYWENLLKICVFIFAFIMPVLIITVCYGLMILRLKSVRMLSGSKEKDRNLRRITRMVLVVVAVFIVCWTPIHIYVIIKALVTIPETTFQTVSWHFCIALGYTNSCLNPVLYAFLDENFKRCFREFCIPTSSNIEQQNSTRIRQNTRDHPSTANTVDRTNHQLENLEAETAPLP
Opioid receptors; mu & delta (Homo sapiens), sequence (P41143 whole entry, looked up): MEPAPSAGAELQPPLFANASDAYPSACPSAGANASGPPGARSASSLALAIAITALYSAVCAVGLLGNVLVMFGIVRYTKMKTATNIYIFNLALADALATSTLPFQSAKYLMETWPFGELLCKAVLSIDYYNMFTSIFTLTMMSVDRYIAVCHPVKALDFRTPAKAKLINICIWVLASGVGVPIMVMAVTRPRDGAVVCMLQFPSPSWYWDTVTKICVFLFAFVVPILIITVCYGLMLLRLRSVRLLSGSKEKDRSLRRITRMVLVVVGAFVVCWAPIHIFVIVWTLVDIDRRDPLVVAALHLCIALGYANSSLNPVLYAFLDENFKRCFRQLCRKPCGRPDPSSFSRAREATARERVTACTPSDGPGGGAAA

[5] = molecular target: Delta-type opioid receptor (Mus musculus, UniProt P32300); experiment: Inhibitory concentration required against biological activity of Opioid receptor delta 1 from mouse vas deferens (MVD)
Delta-type opioid receptor, sequence (P32300 whole entry): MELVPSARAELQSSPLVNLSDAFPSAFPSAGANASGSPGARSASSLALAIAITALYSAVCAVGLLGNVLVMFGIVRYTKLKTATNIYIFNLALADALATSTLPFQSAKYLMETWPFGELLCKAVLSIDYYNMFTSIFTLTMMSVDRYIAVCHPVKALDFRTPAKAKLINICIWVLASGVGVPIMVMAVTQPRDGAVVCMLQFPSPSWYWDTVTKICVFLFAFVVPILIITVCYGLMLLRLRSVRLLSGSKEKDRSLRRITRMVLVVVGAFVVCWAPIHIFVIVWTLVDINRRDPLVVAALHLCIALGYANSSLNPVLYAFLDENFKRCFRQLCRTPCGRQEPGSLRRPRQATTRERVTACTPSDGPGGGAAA

T1 sequence (P97266 whole entry): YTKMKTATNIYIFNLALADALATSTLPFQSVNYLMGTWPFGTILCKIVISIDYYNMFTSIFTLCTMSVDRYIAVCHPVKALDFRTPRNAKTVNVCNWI

C[C@@H](NC(=O)[C@@H](N)Cc1ccc(O)cc1)C(=O)NCC(=O)N[C@@H](Cc1c(F)c(F)c(F)c(F)c1F)C(=O)NNC(=O)[C@H](Cc1c(F)c(F)c(F)c(F)c1F)NC(=O)CNC(=O)[C@@H](C)NC(=O)[C@@H](N)Cc1ccc(O)cc1
Ki (Mu-type opioid receptor [1]): 0.91 nM
Ratio [2]: 0.36
IC50 (Mu-type opioid receptor [3]): 8.9 nM
Ratio [4]: 0.12
IC50 [5]: 25 nM

C[C@H](c1ccccc1)[C@H](NC(=O)CNC(=O)[C@@H](C)NC(=O)[C@@H](N)Cc1ccc(O)cc1)C(=O)NNC(=O)[C@@H](NC(=O)CNC(=O)[C@@H](C)NC(=O)[C@@H](N)Cc1ccc(O)cc1)[C@H](C)c1ccccc1 (stereo in doubt)
Ki (Mu-type opioid receptor [1]): 1.3 nM
Ratio [2]: 0.12
IC50 (Mu-type opioid receptor [3]): 21 nM
Ratio [4]: 0.012
IC50 [5]: 180 nM

CC(NC(=O)[C@@H](N)Cc1ccc(O)cc1)C(=O)NCC(=O)N[C@H](C(=O)NNC(=O)[C@@H](NC(=O)CNC(=O)C(C)NC(=O)[C@@H](N)Cc1ccc(O)cc1)[C@@H](C)c1ccccc1)[C@@H](C)c1ccccc1 (single isomer, unassigned)
Ki (Mu-type opioid receptor [1]): 3 nM
Ratio [2]: 0.34
IC50 (Mu-type opioid receptor [3]): 41 nM
Ratio [4]: 0.27
IC50 [5]: 120 nM

C[C@@H](NC(=O)[C@@H](N)Cc1ccc(O)cc1)C(=O)NCC(=O)N[C@@H](Cc1cccc2ccccc12)C(=O)NNC(=O)[C@H](Cc1cccc2ccccc12)NC(=O)CNC(=O)[C@@H](C)NC(=O)[C@@H](N)Cc1ccc(O)cc1
Ki (Mu-type opioid receptor [1]): 0.79 nM
Ratio [2]: 0.1
IC50 (Mu-type opioid receptor [3]): 1.7 nM
Ratio [4]: 0.12
IC50 [5]: 17 nM

C[C@@H](NC(=O)[C@@H](N)Cc1ccc(O)cc1)C(=O)NCC(=O)N[C@@H](Cc1ccc2ccccc2c1)C(=O)NNC(=O)[C@H](Cc1ccc2ccccc2c1)NC(=O)CNC(=O)[C@@H](C)NC(=O)[C@@H](N)Cc1ccc(O)cc1
Ki (Mu-type opioid receptor [1]): 1.7 nM
Ratio [2]: 0.24
IC50 (Mu-type opioid receptor [3]): 2.2 nM
Ratio [4]: 0.23
IC50 [5]: 9.3 nM

Source: ChEMBL document CHEMBL1131540 (Bioorg Med Chem Lett, 1998)
